Results as given in article PMC7957578, “N-(1,3,4-Oxadiazol-2-yl)Benzamides as Antibacterial Agents against Neisseria gonorrhoeae” (International Journal of Molecular Sciences, 2021).
Values after ≈ are worked out from the molar mass of the structure shown. Like-named read-outs stand apart in the source and are kept apart here. Blank lines part the entries; values can stand above or below the compound they belong to.

Experiments:
[1] = tested on: N. gonorrhoeae strain 181; test: MIC by broth microdilution against N. gonorrhoeae strain 181; assay type: cell-based, Neisseria gonorrhoeae; conditions: Neisseria gonorrhoeae; N. gonorrhoeae strain 181; read-out: MIC
Description: (§1) Briefly, bacteria were grown overnight on chocolate agar II at 37° C in the presence of 5% CO2. Afterwards, a bacterial suspension equivalent to 1.0 McFarland standard was prepared and diluted in brucella broth supplemented with yeast extract, neopeptone, hematin, pyridoxal, and NAD. Test agents were added in the first row of the 96-well plates and serially diluted along the plates. Plates were then incubated at 37° C in the presence of 5% CO2 for 24 h. […] Plates were then incubated at 37 ° C in the presence of 5% CO2 for 24 h. The MBC was categorized as the lowest concentration that reduced bacterial growth by 99.9% [45, 46, 47].

[2] = tested on: N. gonorrhoeae 165; test: MIC/MBC against N. gonorrhoeae clinical isolate 165; assay type: cell-based; conditions: Neisseria gonorrhoeae
Description: as §1

[3] = tested on: N. gonorrhoeae 166; test: MIC/MBC against N. gonorrhoeae clinical isolate 166; assay type: cell-based; conditions: Neisseria gonorrhoeae
Description: as §1

[4] = tested on: N. gonorrhoeae 194; test: MIC/MBC against N. gonorrhoeae clinical isolate 194; assay type: cell-based; conditions: Neisseria gonorrhoeae
Description: as §1

[5] = tested on: N. gonorrhoeae 197; test: MIC/MBC against N. gonorrhoeae clinical isolate 197; assay type: cell-based; conditions: Neisseria gonorrhoeae
Description: as §1

[6] = tested on: N. gonorrhoeae 200; test: MIC/MBC against N. gonorrhoeae clinical isolate 200; assay type: cell-based; conditions: Neisseria gonorrhoeae
Description: as §1

[7] = tested on: N. gonorrhoeae WHO L; test: MIC/MBC against N. gonorrhoeae WHO L reference strain; assay type: cell-based; conditions: Neisseria gonorrhoeae
Description: as §1

[8] = tested on: panel drug-resistant pathogenic N. gonorrhoeae strains; test: MIC/MBC against a panel of drug-resistant N. gonorrhoeae strains; assay type: cell-based, Neisseria gonorrhoeae; conditions: MBC the same as or one-fold higher than MIC
[9] = tested on: S. aureus ATCC 25923; test: MIC/MBC (CLSI broth microdilution) against S. aureus ATCC 25923; assay type: cell-based; conditions: Staphylococcus aureus, ATCC25923, S. aureus ATCC 25923
Description: (§2) The minimum inhibitory concentrations (MICs) of the tested compounds and control drugs, linezolid, vancomycin, and gentamicin, were determined using the broth microdilution method according to the guidelines outlined by the Clinical and Laboratory Standards Institute (CLSI) against clinically relevant bacterial (Staphylococcus aureus, MRSA, Escherichia coli, Enterococcus faecalis and Enterococcus faecium strains. S. aureus, MRSA, E. coli, Enterococcus faecalis and Enterococcus faecium were grown aerobically overnight on tryptone soy agar (TSA) plates at 37° C. Afterwards, a bacterial solution equivalent to 0.5 McFarland standard was prepared and diluted in cation-adjusted Mueller–Hinton broth (CAMHB) (for S. aureus, MRSA, and E. coli) to achieve a bacterial concentration of about 5 × 10^5 CFU/mL. Enterococcus faecalis and Enterococcus faecium 0.5 McFarland standard solution was diluted in tryptone soy broth (TSB) to achieve a bacterial concentration of about 5 × 10^5 CFU/mL. Compounds and control drugs were added in the first row of 96-well plates and serially diluted with the corresponding media containing bacteria. Plates were then incubated as previously described. […] The minimum bactericidal concentration (MBC) was tested by spotting 4 µL from wells with no growth onto TSA plates. Plates were incubated at 37 ° C for at least 18 h before recording the MBC. The MBC was categorized as the lowest concentration that reduced bacterial growth by 99.9% [45, 46, 47].

[10] = tested on: MRSA USA300; test: MIC/MBC (CLSI broth microdilution) against MRSA USA300; assay type: cell-based, methicillin-resistant Staphylococcus aureus; conditions: Staphylococcus aureus, MRSA USA300
Description: as §2

[11] = tested on: E. faecalis ATCC 29212; test: MIC/MBC (CLSI broth microdilution) against E. faecalis ATCC 29212; assay type: cell-based; conditions: Enterococcus faecalis, ATCC29212, E. faecalis ATCC 29212
Description: as §2

[12] = tested on: VRE. faecalisATCC 51575; test: MIC/MBC (CLSI broth microdilution) against VRE faecalis ATCC 51575; assay type: cell-based; conditions: Enterococcus, VRE faecalis ATCC 51575
Description: as §2

[13] = tested on: VRE. faecalis ATCC 51299; test: MIC/MBC (CLSI broth microdilution) against VRE faecalis ATCC 51299; assay type: cell-based; conditions: Enterococcus, VRE faecalis ATCC 51299
Description: as §2

[14] = tested on: VRE. faecium ATCC 700221; test: MIC/MBC (CLSI broth microdilution) against VRE faecium ATCC 700221; assay type: cell-based; conditions: Enterococcus, VRE faecium ATCC 700221
Description: as §2

[15] = tested on: L. monocytogenes ATCC 19115; test: MIC/MBC (CLSI broth microdilution) against L. monocytogenes ATCC 19115; assay type: cell-based; conditions: Listeria monocytogenes, ATCC19115, L. monocytogenes ATCC 19115
[16] = tested on: E. coli BW25113 (wild-type strain); test: MIC/MBC (CLSI broth microdilution) against E. coli BW25113 wild type; assay type: cell-based, Escherichia coli; conditions: E. coli BW25113 wild-type strain
Description: as §2

[17] = tested on: E. coli JW55031 (TolC Mutant); test: MIC/MBC (CLSI broth microdilution) against E. coli TolC mutant; assay type: cell-based; conditions: Escherichia coli
Description: as §2

[18] = tested on: N. gonorrhoeae; test: MIC against N. gonorrhoeae in presence of fetal bovine serum; assay type: cell-based; conditions: Neisseria gonorrhoeae, 24 h
[19] = tested on: human colorectal cells (Caco-2); test: In vitro cytotoxicity, MTS assay; assay type: cell-based
Description: HSGN-237 and -238 were assayed for potential cytotoxicity against a human colorectal adenocarcinoma (Caco-2) cell line, as described previously. Briefly, tested compounds were incubated with caco-2 cells for 24 and 48 h. Then, the cells were incubated with MTS (3-(4,5-dimethylthiazol-2-yl)-5-(3-carboxymethoxyphenyl)-2-(4-sulfophenyl)-2H-tetrazolium) reagent for 4 h before measuring the absorbance values (OD490).
Figure 2 In vitro cytotoxicity assessment of HSGN-237 and -238 (tested in triplicate) against human colorectal cells (Caco-2) after (A) 24 h, and (B) 48 h, using the 3-(4,5-dimethylthiazol-2-yl)-5-(3-carboxymethoxyphenyl)-2-(4-sulfophenyl)-2H-tetrazolium (MTS) assay. Results are presented as percent viable cells relative to DMSO (negative control). Error bars represent standard deviation values. A two-way ANOVA, with post hoc Dunnet’s multiple comparisons test, determined the statistical difference between the values obtained for the compound and DMSO. Asterisks denote statistically significant differences between treatments of cells with either HSGN-237 or -238 as compared to DMSO-treated cells. The experiment was repeated 3 independent times.

[20] = tested on: tested bacterial strains (Table 3); test: MBC versus MIC against the panel of Gram-positive and Gram-negative pathogens; assay type: cell-based; conditions: MBCs more than three-fold higher than MICs, strains of Table 3
Description: While the focus of these new N-(1,3,4-oxadiazol-2-yl)benzamides is towards N. gonorrhoeae, we proceeded to test their activity against other Gram-positive and Gram-negative pathogens. Intriguingly, HSGN-235, HSGN-237, and HSGN-238 had potent activity against the tested Gram-positive bacterial pathogens. For instance, all three compounds had potent activity against the staphylococcal strains, with MICs ranging from 0.25 to 1 µg/mL (Table 3). Furthermore, HSGN-235, HSGN-237, and HSGN-238 maintained potent activity against clinically relevant Gram-positive bacterial pathogens such as vancomycin-resistant enterococci (VRE) and Listeria monocytogenes (Table 3). Additionally, we moved to test if HSGN-235, HSGN-237, and HSGN-238 were active against other Gram-negative bacterial pathogens. […] This lack of activity against Gram-negative bacteria appears to be due to HSGN-235, HSGN-237, and HSGN-238 being a substrate for efflux.
The minimum inhibitory concentrations (MICs) of the tested compounds and control drugs, linezolid, vancomycin, and gentamicin, were determined using the broth microdilution method according to the guidelines outlined by the Clinical and Laboratory Standards Institute (CLSI) against clinically relevant bacterial (Staphylococcus aureus, MRSA, Escherichia coli, Enterococcus faecalis and Enterococcus faecium strains. S. aureus, MRSA, E. coli, Enterococcus faecalis and Enterococcus faecium were grown aerobically overnight on tryptone soy agar (TSA) plates at 37° C. Afterwards, a bacterial solution equivalent to 0.5 McFarland standard was prepared and diluted in cation-adjusted Mueller–Hinton broth (CAMHB) (for S. aureus, MRSA, and E. coli) to achieve a bacterial concentration of about 5 × 10^5 CFU/mL. Enterococcus faecalis and Enterococcus faecium 0.5 McFarland standard solution was diluted in tryptone soy broth (TSB) to achieve a bacterial concentration of about 5 × 10^5 CFU/mL. Compounds and control drugs were added in the first row of 96-well plates and serially diluted with the corresponding media containing bacteria. […]

[21] = tested on: Caco-2 bilayers; test: Caco-2 bidirectional permeability assay; assay type: in vitro ADME, human; conditions: Caco-2 permeability classification
Description: Oral bioavailability is a highly important consideration when developing bioactive molecules as therapeutic agents. A critical factor of oral bioavailability is human intestinal absorption. The Caco-2 bidirectional permeability assay is the most widely used in vitro model for predicting if a bioactive molecule can have adequate systemic absorption. Thus, we selected HSGN-238 to act as a model to analyze the drug-like properties of newly synthesized N-(1,3,4-oxadiazol-2-yl)benzamides.
Assay and data analysis were performed by Eurofins Panlabs (MO, USA) according to a previously reported protocol. The apparent permeability coefficient (Papp) of the tested agents was calculated using the equation below: Papp(cm/s)=VR∗CR,end/Δt∗1/A∗(CD,mid−CR,mid), where VR is the volume of the receiver chamber. CR,end is the concentration of the test compound in the receiver chamber at the end time point, Δt is the incubation time, and A is the surface area of the cell monolayer. CD,mid is the calculated mid-point concentration of the test compound in the donor side, which is the mean value of the donor concentration at 0 minutes and the donor concentration at the end time point. CR,mid is the mid-point concentration of the test compound in the receiver side, which is one half of the receiver concentration at the end time point. Concentrations of the test compound were expressed as peak areas of the test compound.

SMILES: O=C(Nc1nnc(-c2cccc(F)c2)o1)c1ccc(OC(F)(F)F)cc1 [HSGN-237, N-(5-(3-Fluorophenyl)-1,3,4-oxadiazol-2-yl)-4-(trifluoromethoxy)benzamide]
- MIC [1]: 0.125 µg/mL (≈ 0.34 µM)
- MBC [2]: 0.125 µg/mL (≈ 0.34 µM)
- MIC [2]: 0.06 µg/mL (≈ 0.163 µM)
- MBC [3]: 0.06 µg/mL (≈ 0.163 µM)
- MIC [3]: 0.06 µg/mL (≈ 0.163 µM)
- MBC [4]: 0.06 µg/mL (≈ 0.163 µM)
- MIC [4]: 0.03 µg/mL (≈ 0.0817 µM)
- MBC [5]: 0.06 µg/mL (≈ 0.163 µM)
- MIC [5]: 0.03 µg/mL (≈ 0.0817 µM)
- MBC [6]: 0.06 µg/mL (≈ 0.163 µM)
- MIC [6]: 0.06 µg/mL (≈ 0.163 µM)
- MBC [7]: 0.06 µg/mL (≈ 0.163 µM)
- MIC [7]: 0.06 µg/mL (≈ 0.163 µM)
- type of activity from MBC versus MIC [8]: bactericidal activity
- MBC ([9]; read-out: MBC): > 64 µg/mL
- MIC ([9]; read-out: MIC): 0.25 µg/mL (≈ 0.681 µM)
- MBC ([10]; read-out: MBC): 32 µg/mL (≈ 87.1 µM)
- MIC ([10]; read-out: MIC): 0.25 µg/mL (≈ 0.681 µM)
- MBC ([11]; read-out: MBC): > 64 µg/mL
- MIC ([11]; read-out: MIC): 1 µg/mL (≈ 2.72 µM)
- MBC ([12]; read-out: MBC): > 64 µg/mL
- MIC ([12]; read-out: MIC): 1 µg/mL (≈ 2.72 µM)
- MBC ([13]; read-out: MBC): 16 µg/mL (≈ 43.6 µM)
- MIC ([13]; read-out: MIC): 0.5 µg/mL (≈ 1.36 µM)
- MBC ([14]; read-out: MBC): 8 µg/mL (≈ 21.8 µM)
- MIC ([14]; read-out: MIC): 0.5 µg/mL (≈ 1.36 µM)
- MBC ([15]; read-out: MBC): 64 µg/mL (≈ 174 µM)
- MIC ([15]; read-out: MIC): 0.5 µg/mL (≈ 1.36 µM)
- MIC [16]: >8 µg/mL
- MBC ([16]; Escherichia coli, read-out: MBC): > 8 µg/mL
- MIC ([16]; Escherichia coli, read-out: MIC): > 8 µg/mL
- MBC [17]: 16 µg/mL (≈ 43.6 µM)
- MIC [17]: 0.25 µg/mL (≈ 0.681 µM)
- MIC ([18]; 1% FBS added to the media): 0.125 µg/mL
- MIC ([18]; 5% FBS added to the media): 1 µg/mL
- MIC ([18]; 10% FBS added to the media): 4 µg/mL
- non-toxic concentration ([19]; Caco-2 cells, 24 and 48 h, MTS assay): higher than 64 µg/mL
- non-toxic concentration relative to MIC against N. gonorrhoeae ([19]; Caco-2 non-toxic concentration versus corresponding MIC): 512 times
- type of activity from MBC versus MIC [20]: bacteriostatic agents

- Notes (permeability class) [21]: Low Permeability Control
SMILES: CNC(=C[N+](=O)[O-])NCCSCc1ccc(CN(C)C)o1 [Ranitidine]
